Measurements as given in ChEMBL document CHEMBL3430912, “GSK Tres Cantos Anti-Kinetoplastid Screening (TCAKS) Data”.

Tests used:
Leishmania donovani [1] = assay: (§1) GSK_TCAKS: pIC50 Leishmania donovani Imaging: Amastigotes/Macrophages. Assay plates (384-well) were prepared by adding 250nL of compound to each well. For single shot assay, the final compound concentration was 5 uM. […] Automated image analysis was performed with a script developed on Acapella High Content Imaging and Analysis Software (PerkinElmer). Output: Average number of amastigotes per macrophage cell were reported for each well.; assay type: functional, organism-based, Homo sapiens; conditions: THP-1
[2] = GSK_TCAKS: pIC50 HepG2 human cell line viability assay using luminiscence. […] Seeding density was checked to ensure that new mono-layers were not more than 50% confluent at the time of harvesting. Cell suspension was added to 500 mL of the same medium at a final density of 1.2 * 10^5 cells/mL. This cell suspension was dispensed (25 uL, 3000 cells per well) into 384-well clear-bottom plates using a Multidrop Combi dispenser. Prior to addition of the cell suspension, the screening compounds (250 nL) were pre-dispensed into the plates with an Echo liquid handler. Plates were incubated for 48 h at 37C, 5% CO2. After incubation, plates equilibrated at room temperature for 30 min before proceeding to develop the luminescent signal. The signal developer, CellTiter-Glo Reagent, was allowed to equilibrate at room temperature for 30 min and added to the plates (25uL per well) using a Multidrop Combi dispenser. Plates were left for 10 min at room temperature for stabilization and then read using a ViewLux.; assay type: toxicity, cell-based
Trypanosoma cruzi [3] = assay: (§2) GSK_TCAKS: pIC50 Trypanosoma cruzi Imaging: Infected Cells. […] Cells were then washed once with PBS before infection. T. cruzi trypomastigotes, collected at days 5 to 8 after infection from LLC-MK2 parasite infected cultures, were allowed to swim out for 4h at 37C from a centrifuged pellet (2,500 rpm/10 min/room temperature). Trypomastigotes were then collected and counted in a CASY Cell Counter. Trypomastigotes, in supplemented DMEM, were added to H9c2 cultures in a multiplicity of infection of 1 and incubated for 18 h. Cells were washed once with PBS before incubation of the infected H9c2 monolayer with trypsin (Life-Technologies) to detach cells from the flask. Cells were counted in a CASY Cell Counter using a 150 um capillary and their density set at 5 * 10^4 cells per mL in supplemented assay DMEM. Infected H9c2 were dispensed into 384-well poly-lysine coated assay plates at 50uL per well using a Multidrop Combi dispenser. After seeding them, the plates were incubated at 37C, 5% CO2 for 72h. Cultures were then fixed and stained by addition of 50 uL of a solution containing 8% formaldehyde and 4 uM DRAQ5 DNA dye (BioStatus, UK) per well. […] Five images were collected per well for reliable statistical analysis. Automated image analysis was performed with a script developed on Acapella High Content Imaging and Analysis Software (PerkinElmer). Output: percentage of infected cells per well as a second infection marker.; assay type: functional, organism-based, Rattus norvegicus; conditions: H9c2, 4 h
[4] = system: Trypanosoma brucei brucei; assay: GSK_TCAKS: pIC50 Trypanosoma brucei viability assay using fluorescence intensity. Assay plates (1536-well) were prepared by dispensing 25nL of compound solution per well using an Echo acoustic dispenser (Labcyte).; assay type: functional, organism-based; conditions: Lister 427, 2 h
Trypanosoma cruzi [5] = assay: GSK_TCAKS: pIC50 Trypanosoma cruzi Imaging: Amastigotes/Cell. […] Cells were then washed once with PBS before infection. T. cruzi trypomastigotes, collected at days 5 to 8 after infection from LLC-MK2 parasite infected cultures, were allowed to swim out for 4h at 37C from a centrifuged pellet (2,500 rpm/10 min/room temperature). Trypomastigotes were then collected and counted in a CASY Cell Counter. Trypomastigotes, in supplemented DMEM, were added to H9c2 cultures in a multiplicity of infection of 1 and incubated for 18 h. Cells were washed once with PBS before incubation of the infected H9c2 monolayer with trypsin (Life-Technologies) to detach cells from the flask. Cells were counted in a CASY Cell Counter using a 150 um capillary and their density set at 5 * 10^4 cells per mL in supplemented assay DMEM. Infected H9c2 were dispensed into 384-well poly-lysine coated assay plates at 50uL per well using a Multidrop Combi dispenser. After seeding them, the plates were incubated at 37C, 5% CO2 for 72h. Cultures were then fixed and stained by addition of 50 uL of a solution containing 8% formaldehyde and 4 uM DRAQ5 DNA dye (BioStatus, UK) per well. […] Five images were collected per well for reliable statistical analysis. Automated image analysis was performed with a script developed on Acapella High Content Imaging and Analysis Software (PerkinElmer). Output: number of amastigotes per cell as infection level measurement.; assay type: functional, organism-based, Rattus norvegicus; conditions: H9c2, 4 h
[6] = system: Trypanosoma brucei brucei; assay: GSK_TCAKS: pIC50 Trypanosoma brucei viability assay using luminiscence. Assay plates (1536-well) were prepared. T. brucei cultures were harvested and counted in a CASY cell counter. A parasite suspension was prepared at a final concentration of 5 * 10^4 cells/mL in complete HMI9 medium and 6uL was dispensed to all wells containing compounds using a Multidrop Combi dispenser. 6uL of HMI9 media with 0.4% DMSO were dispensed to control columns. Plates were incubated for 24 h at 37C, 5% CO2 then tempered for 10 min at room temperature. ATP content was quantified by adding 4 uL of CellTiter-Glo Reagent (Promega) according to the manufacturer's instructions. Luminescence was measured using a ViewLux.; assay type: functional, organism-based; conditions: Lister 427, CASY
Trypanosoma cruzi [7] = assay: GSK_TCAKS: pIC50 Trypanosoma cruzi viability assay using beta-GAL activity. This assay was run at single shot at 5uM compound concentration per well. The biological reagents consisted of NIH-3T3 host cells and trypomastigotes parasitic cells; both cell types were set to a 3.3 * 10^5 cells/mL dilution in assay DMEM by means of a CASY cell counter device using a 60um capillary. 6 uL of the mixture were dispensed per well (about 1 * 10^3 host-cells and 1 * 10^3 parasites) with a Multidrop Combi dispenser. […] In all wells, the percentage of DMSO never exceeded 0.5%. Plates incubated for four days at 37C, 5% CO2. The substrate used for the assay fluorescence intensity (FLINT) readout was resorufin-beta-D-galactopiranoside (Sigma-Aldrich) at 5uM per well. It was diluted in PBS supplemented with the soft detergent Igepal (Fluka).; assay type: functional, organism-based, Mus musculus; conditions: Tulahuen, NIH3T3
Trypanosoma cruzi [8] = assay: as §2, with “H2C9” for “Trypanosoma cruzi”, “H9c2 Host Cardiomyocytes.” for “Infected Cells.”, “Number” for “percentage”, “H9c2 Host Cardiomyocytes nuclei to determine drug-related cytotoxicity.” for “infected cells per well as a second infection marker.”; assay type: functional, organism-based, Rattus norvegicus; conditions: H9c2, 4 h
[9] = biological target: Sterol 14-alpha demethylase (Trypanosoma cruzi (strain CL Brener), UniProt Q7Z1V1); assay: GSK_TCAKS: pIC50 CYP51 from Trypanosoma cruzi.; assay type: functional
Chain of Sterol 14-alpha demethylase (Q7Z1V1 whole entry): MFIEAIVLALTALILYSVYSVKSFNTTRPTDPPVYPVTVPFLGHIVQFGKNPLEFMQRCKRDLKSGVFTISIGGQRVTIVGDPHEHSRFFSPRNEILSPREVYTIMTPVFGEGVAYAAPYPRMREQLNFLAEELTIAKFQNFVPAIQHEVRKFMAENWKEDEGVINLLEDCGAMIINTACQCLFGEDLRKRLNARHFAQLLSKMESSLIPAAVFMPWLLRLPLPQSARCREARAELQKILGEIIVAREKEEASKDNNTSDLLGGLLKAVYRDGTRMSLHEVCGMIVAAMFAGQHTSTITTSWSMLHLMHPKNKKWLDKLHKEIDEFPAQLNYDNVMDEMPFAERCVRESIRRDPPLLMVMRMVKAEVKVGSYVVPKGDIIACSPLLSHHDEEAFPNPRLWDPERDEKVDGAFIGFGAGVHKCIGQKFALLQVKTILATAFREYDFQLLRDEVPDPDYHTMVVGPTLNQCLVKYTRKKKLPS

Leishmania donovani [10] = assay: as §1, with “THP-1 Host Macrophages.” for “Amastigotes/Macrophages.”, “THP-1” for “Average number of amastigotes per macrophage”, “cell count” for “cell”; assay type: functional, organism-based, Homo sapiens
Leishmania donovani [11] = assay: GSK_TCAKS: pIC50 Leishmania donovani viability assay using fluorescence intensity. Assay plates (1536-well) were prepared by adding 30nL per well of compound. For single shot assay, the final compound concentration was 5uM. […] Briefly, eGFP LdBOB axenic amastigotes were harvested, fixed and counted in a CASY cell counter (Roche-Applied Science). A final concentration of 1.5 * 10^5 cells per well were prepared in amastigote media containing 500 U/mL penicillin/streptomycin (Invitrogen) and 6uL was dispensed to each experimental well using a Multidrop Combi dispenser (Thermo Scientific). 6uL of assay media was dispensed to control columns used as reference for 100% compound response. Following incubation for 72 h at 37C, 5% CO2, 2 uL of resazurin was added to each well at a final concentration of 0.5 mM in phosphate buffered saline (PBS) with IGEPAL (Sigma-Aldrich), 0.05% (v/v).; assay type: functional, organism-based
NIH3T3 = assay: GSK_TCAKS: pIC50 NIH 3T3 cell line viability assay using luminiscence. Tissue culture surface treated assay plates (1536-well) were used. […] The 100% cells survival control was determined exposing the host-cells to a 0.5% DMSO concentration, whereas the 100% toxicity control was achieved by seeding the cells in presence of Amphotericin B at 50uM. Plates were incubated for four days at 37C, 5% CO2. The assay readout was developed by addition of 5uL of CellTiter-Glo Reagent following the manufacturer's instructions. Luminiscence was measured using a ViewLux.; assay type: functional, cell-based; conditions: Mus musculus, NIH3T3, 96 h
Leishmania donovani [12] = assay: as §1, with “Infected Macrophages.” for “Amastigotes/Macrophages.”, “Percent” for “Average number”, “infected” for “amastigotes per”, “cells” for “cell”; assay type: functional, organism-based, Homo sapiens; conditions: THP-1

| Compound | IC50 (Leishmania donovani [1]) [µM] | IC50 at 48 h [2] [µM] | IC50 (Trypanosoma cruzi [3]) [µM] | IC50 [4] [µM] | IC50 (Trypanosoma cruzi [5]) [µM] | IC50 [6] [µM] | IC50 (Trypanosoma cruzi [7]) [µM] | IC50 (Trypanosoma cruzi [8]) [µM] | IC50 [9] [µM] | IC50 (Leishmania donovani [10]) [µM] | IC50 (Leishmania donovani [11]) [µM] | IC50 (NIH3T3) [µM] | IC50 (Leishmania donovani [12]) [µM] |
| --- | --- | --- | --- | --- | --- | --- | --- | --- | --- | --- | --- | --- | --- |
| O=C(NCc1ccncc1)c1ccccc1N1CCCN(C(=O)Cc2ccc(F)c(F)c2)CC1 | > 50.1 | > 100 | 0.0794 | 6.31 | 0.0794 | 20 | 0.126 | > 50.1 | 0.0794 | > 50.1 | 2.51 | 15.8 | > 50.1 |
| CCC(=O)Nc1ccc(C(=O)Nc2ccccc2-c2ccccc2)cc1 | 25.1 | > 100 | 0.501 | 20 | 0.251 | 25.1 | 0.501 | > 50.1 | > 100 | 15.8 | 10 | > 50.1 | 20 |
| CCN(CC)S(=O)(=O)c1ccc(Cn2nc(C(=O)Nc3ccncn3)c3ccccc32)cc1 | > 50.1 | > 100 | 0.398 | 31.6 | 0.398 | > 39.8 | 0.316 | 25.1 | 0.158 | > 50.1 | > 50.1 | 39.8 | > 50.1 |
| Cc1cccnc1CN1CCN(CCCOc2ccc(-c3ccc(C(N)=O)cc3)cc2)CC1 | 10 | > 100 | 20 | 10 | 0.398 | > 39.8 | 0.631 | > 50.1 | > 100 | 12.6 | > 50.1 | 6.31 | 31.6 |
| CC(C(=O)Nc1ccccc1F)N(C)CC(=O)Nc1cccc2ccccc12 (stereo not given) | > 50.1 | > 100 | 0.501 | 25.1 | 0.316 | > 39.8 | 0.398 | > 50.1 | 15.8 | > 50.1 | 50.1 | 12.6 | > 50.1 |
